Test results: PMC5943252, “Contrasting roles for actin in the cellular uptake of cell penetrating peptide conjugates” (Scientific Reports, 2018)
Entries after “also recorded” stand apart in the source; their conditions may differ.

How the values were obtained:
[1] = tested on: actin architecture in A431 cells; experiment: Actin cytoskeleton visualisation (Rh-P staining, confocal microscopy); assay type: cell-based; conditions: for effect on organisation of the actin cytoskeleton: A431 cells, 4 hr, Rh-P staining
Method: Analysis was performed on a Leica SP5 confocal laser scanning microscope, equipped with laser lines: 405 Blue Diode (Excitation wavelength 405 nm for Hoechst 33342) Argon (Excitation wavelength 488 nm for Alexa 488 or EGFP), Helium Neon Laser 1 (Excitation wavelength 543 nm for Tetramethyl-Rhodamine Phalloidin (Rh-P)) and Laser 2 (Excitation wavelength 633 nm for Alexa 647 conjugates). All images presented in this study were obtained using a HCX PL APO 63x 1.4 NA oil immersion objective with Leica Type F immersion oil. Parameters “Gain” and “Off-set” of the individual photomultiplier tubes were adjusted between experiments in order to obtain optimal image acquisition avoiding saturation. For multi-channel image acquisition, the channels were scanned in a sequential recording mode to avoid spectral cross-talk caused by overlapping excitation and/or emission spectra of fluorophores. Acquisition mode “XYZ” and image resolutions (pixels/image) of 512 × 512 or 1024 × 1024 were selected and pinhole size was set to 1 Airy Unit. Depending on acquisition requirements the scan speed was set as either 400 or 700 Hz and for single section images, the same optical section was scanned 3x to generate a line average image. Captured images were then analysed using ImageJ. In some cases (live cell imaging) the same cells were also imaged using […] microscopy (DIC).
A recently described method was utilised giving information on actin architecture at different regions of the cells termed basal and cell body and apex (CBA). For actin staining, HeLa (0.5 × 10^6 cells/well) or A431 (1.0 × 10^6 cells/well) cells in 2.5 mL D-MEM containing 10% FBS were seeded on round borosilicate No.1.5 cover slips in 6 –well plates and allowed to adhere for 24 hr at 37 °C/5% CO2, to reach a confluence of ~80%. The cells were then treated with actin disrupters as described above, washed 3x with PBS and fixed for 15 min at room temperature with 3% PFA in PBS. Cells were then washed 3x with PBS and permeabilised with 0.2% Triton X-100 in PBS at room temperature for 5 min, washed 3x with PBS and stained for cell nuclei with 1.0 µg/ml Hoechst 33342 in PBS and for polymerised actin with 1.0 µg/ml Rh-P in PBS for 15 min at room temperature. The cells were finally washed 3x with PBS and once with distilled water, coverslips were mounted in DAKO mounting medium on glass microscope slides and imaged by confocal microscopy.

[2] = tested on: macrophages; conditions: cited from earlier work
Excerpt: Through interaction with the Rho GTPase, ROCKs play a central role in actin network assembly and membrane association. In A431 cells the effects of Y27632 on the actin cytoskeleton was more subtle than that observed with the agents that directly targeted actin. […] In contrast to results o ...

[3] = tested on: A431 cells; experiment: Flow cytometry of cellular uptake of EGFP-R8 in the presence of actin inhibitors; assay type: cell-based; conditions: for Normalised Fluoresence Intensity (EGFP-R8): three independent experiments
Method: (§1) A431 cells were seeded onto 12-well plates and cultured for 24 hr to be ~80% confluent on the day of experiment. Cells were washed twice with PBS and then incubated with diluent control (DMSO/dH2O) or actin inhibitors as previously described. They were then loaded with serum-free DMEM containing either 2 µM EGFP-R8, 5 µg/ml TF-647 or 0.1 mg/ml Dex-647 in the presence or absence of actin inhibitors for times stipulated in the figure legends. The plates were then placed on ice to prevent further uptake and washed 3x with either ice-cold PBS or 0.5 mg/ml heparin in PBS. To remove the plasma membrane bound TF, cells were washed 3x with ice-cold PBS followed by an incubation for 1 min in ice-cold acid wash (0.2 M acetic acid, 0.2 M NaCl, pH 2.0)[33]. All cells were then washed twice with PBS at room temperature before trypsinisation at 37 °C for 5 min before placing the detached cells in centrifuge tubes and centrifuging at 4 °C for 3 min at 800 × g. The obtained cell suspension was washed 3x with ice-cold PBS and finally resuspended in 300 µl ice-cold PBS for measurement of cell-associated fluorescence (cell gate 50,000 cells) by flow cytometry on a BD FACSVerse utilising a 488 laser and 527/32 filter for EGFP analysis and a 633 nm laser and 660/10 filter for Alexa 647. Cells were gated using FSC-A/SSC-A to isolate single cell populations and analysed using FlowJo.
Flow cytometry measurements represent the mean fluorescence from three independent experiments performed in duplicate, where each individual data point was the geometric mean. A two-tailed unpaired Students t-test was used to test for differences within experiments. Significant differences were classed as having a P value of < 0.05.

[4] = tested on: A431 cells; experiment: Flow cytometry of transferrin-Alexa647 uptake with acid wash; assay type: cell-based; conditions: 10 µM Cyt D, 15 min preincubation, then 5 µg/ml TF-647 for 30 min with Cyt D, acid washing of surface label, three separate experiments
Method: as §1, with “All cells were then washed twice with PBS at room temperature before trypsinisation at 37 °C for 5 min before placing the detached cells in centrifuge tubes and centrifuging at 4 °C for 3 min at 800 × g.” left out
Flow cytometry measurements represent the mean fluorescence from three independent experiments performed in duplicate, where each individual data point was the geometric mean. […]

[5] = tested on: HeLa cells; experiment: Live cell confocal microscopy of uptake of endocytic probes and R8 conjugates, with or without Cyt D; assay type: cell-based; conditions: 10 µM Cyt D, 15 min preincubation
Method: HeLa or A431 cells were seeded on 35 mm MatTek dishes (Ashland, US) at respective densities of 5 × 10^5 cells/dish and 1.0 × 10^6 cells/dish and maintained in 2.5 mL D-MEM containing 10%, 100 IU/mL penicillin and 100 µg/mL streptomycin. Cells were then allowed to adhere for 24 hr at 37 °C/5% CO2 to reach a confluence of ~80%. On the day of experimentation, they were washed with PBS and then incubated with 100 µl serum-free D-MEM (thus reducing well described serum binding effects[32]) containing either 2 µM CPP conjugate (R8-Alexa488 or EGFP-R8), 5 µg/ml transferrin-Alexa 647 (TF-647) or 0.1 mg/ml dextran (10 kDa)-Alexa 647 (Dex-647). The cells were then incubated for 1 hr (or 30 min for TF-647) at 37 °C/5% CO2 before washing 3x with PBS (TF-647 or Dex-647) or PBS 0.5 mg/mL heparin (R8-conjugates). […]
Cells were seeded on MatTek dishes as previously described and were washed with PBS before preincubation at 37 °C with diluent control (DMSO) or actin inhibitors: 10 µM Cyt D for 15 min; 0.1–1 µM Lat B for 30 min; 0.2–4 µM JAS for 45 min; 50–100 µM Y27632 for 4 hr in serum-free D-MEM at 37 °C/5% CO2. […] EGFP-R8 (2 µM) was then added for 1 hr in the absence or presence of 10 µM Cyt D. EGFP-R8 and Dex-647 subcellular distribution was then analysed in live cells using confocal microscopy. […]

[6] = tested on: HeLa; conditions: cited from earlier work
Excerpt: (§2) Cyt D binds to the fast-growing ends of actin nuclei and filaments, preventing addition of monomeric actin to these sites. […] Here we further explored these contradictory effects by also performing uptake studies with recomb ...

[7] = tested on: A431; conditions: cited from earlier work
Excerpt: as §2

[8] = tested on: A431 cells; experiment: Live cell confocal microscopy of uptake of endocytic probes and R8 conjugates, with or without actin inhibitors; assay type: cell-based; conditions: 10 µM Cyt D, 15 min preincubation
Method: HeLa or A431 cells were seeded on 35 mm MatTek dishes (Ashland, US) at respective densities of 5 × 10^5 cells/dish and 1.0 × 10^6 cells/dish and maintained in 2.5 mL D-MEM containing 10%, 100 IU/mL penicillin and 100 µg/mL streptomycin. Cells were then allowed to adhere for 24 hr at 37 °C/5% CO2 to reach a confluence of ~80%. On the day of experimentation, they were washed with PBS and then incubated with 100 µl serum-free D-MEM (thus reducing well described serum binding effects[32]) containing either 2 µM CPP conjugate (R8-Alexa488 or EGFP-R8), 5 µg/ml transferrin-Alexa 647 (TF-647) or 0.1 mg/ml dextran (10 kDa)-Alexa 647 (Dex-647). The cells were then incubated for 1 hr (or 30 min for TF-647) at 37 °C/5% CO2 before washing 3x with PBS (TF-647 or Dex-647) or PBS 0.5 mg/mL heparin (R8-conjugates). They were then washed once with PBS, prior to the addition of 2 mL of imaging medium (phenol red free RPMI, 20 mM HEPES pH 7.4) and analysis by live cell confocal microscopy.
Cells were seeded on MatTek dishes as previously described and were washed with PBS before preincubation at 37 °C with diluent control (DMSO) or actin inhibitors: 10 µM Cyt D for 15 min; 0.1–1 µM Lat B for 30 min; 0.2–4 µM JAS for 45 min; 50–100 µM Y27632 for 4 hr in serum-free D-MEM at 37 °C/5% CO2. Endocytic probes (TF-647, Dex-647) or R8-conjugates were then incubated with the cells in the absence (control) or presence of the inhibitors and further incubated at 37 °C/5% CO2 for times specified in figure legends prior to analysis by confocal microscopy. For pulse chase experiments, A431 cells were incubated with 0.1 mg/ml Dex-647 for 2 hr (pulse) followed by washing and a further 4 hr (chase) in fresh complete growth medium. EGFP-R8 (2 µM) was then added for 1 hr in the absence or presence of 10 µM Cyt D. EGFP-R8 and Dex-647 subcellular distribution was then analysed in live cells using confocal microscopy. For low temperature experiments, cells were preincubated with Cyt D as above and then placed on ice for 2 min prior to addition of ice cold EGFP-R8. The cells were then maintained under these conditions for 1 hr prior to analysis by confocal microscopy.
Analysis was performed on a Leica SP5 confocal laser scanning microscope, equipped with laser lines: 405 Blue Diode (Excitation wavelength 405 nm for Hoechst 33342) Argon (Excitation wavelength 488 nm for Alexa 488 or EGFP), Helium Neon Laser 1 (Excitation wavelength 543 nm for Tetramethyl-Rhodamine Phalloidin (Rh-P)) and Laser 2 (Excitation wavelength 633 nm for Alexa 647 conjugates). All images presented in this study were obtained using a HCX PL APO 63x 1.4 NA oil immersion objective with Leica Type F immersion oil. Parameters “Gain” and “Off-set” of the individual photomultiplier tubes were adjusted between experiments in order to obtain optimal image acquisition avoiding saturation. For multi-channel image acquisition, the channels were scanned in a sequential recording mode to avoid spectral cross-talk caused by overlapping excitation and/or emission spectra of fluorophores. Acquisition mode “XYZ” and image resolutions (pixels/image) of 512 × 512 or 1024 × 1024 were selected and pinhole size was set to 1 Airy Unit. Depending on acquisition requirements the scan speed was set as either 400 or 700 Hz and for single section images, the same optical section was scanned 3x to generate a line average image. Captured images were then analysed using ImageJ. […]

Structure (SMILES) | effect on organisation of the actin cytoskeleton ([1]; Y27632 1 and 10 μM (up to 10 μM)) | effect on organisation of the actin cytoskeleton ([1]; Y27632 at higher concentrations (50, 100 μM)) | inhibition of uptake of 70 KDa dextran [2] | inhibition of cell uptake of EGFP-R8 ([3]; 100 µM Y27632, 4 hr preincubation, then 2 µM EGFP-R8 for 1 hr with Y27632, P = 0.02) | Normalised Fluoresence Intensity (EGFP-R8) ([3]; 100 µM Y27632, 4 hr preincubation, then 2 µM EGFP-R8 for 1 hr with Y27632, mean of geometric means) | effect on fluorescence uptake of transferrin [4] | effect on internalisation of R8-Alexa 488 ([5]; then 2 µM R8-Alexa 488 for 1 hr with Cyt D, heparin wash) | effect on cell associated transferrin fluorescence ([5]; then 5 µg/ml TF-647 for 30 min with Cyt D, vs control) | effect on actin organisation ([1]; Cyt D at concentrations >5 µM) | Normalised Fluoresence Intensity (EGFP-R8) ([3]; 10 µM Cyt D, 15 min preincubation, then 2 µM EGFP-R8 for 1 hr with Cyt D, geometric means, normalised to diluent control) | fold increase in intracellular fluorescence (EGFP-R8 uptake) ([3]; 10 µM Cyt D, 15 min preincubation, then 2 µM EGFP-R8 for 1 hr with Cyt D, serum-free D-MEM, 37 °C, washed, trypsinised, vs diluent control, P = 0.0036, three independent experiments) [fold] | effect on uptake of dextran ([6]; HeLa cells) | effect on uptake of Alexa488-CPPs R8 and Tat ([6]; HeLa, flow cytometry) | effect on uptake of Alexa488-CPPs R8 and Tat ([7]; A431, flow cytometry) | effect on uptake of dextran ([7]; A431 cells) | effect on internalisation of EGFP-R8 ([8]; then 2 µM EGFP-R8 for 1 hr with Cyt D, heparin wash) | effect on uptake of R8-Alexa488 ([8]; then 2 µM R8-Alexa488 for 1 hr with Cyt D, heparin wash) | effect on uptake of dextran-Alexa647 ([8]; then 0.1 mg/ml 10 kDa Dex-647 for 1 hr with Cyt D)
C[C@@H](N)[C@H]1CC[C@H](C(=O)Nc2ccncc2)CC1.Cl.Cl (relative stereo) [Y27632, (+)-(R)-trans-4-(1-aminoethyl)-N-(4-pyridyl) cyclohexanecarboxamide dihydrochloride] | no visible changes in the organisation of the actin cytoskeleton | extensive actin deformities | ~ 50% | ~ 20% | 0.77 | – | – | – | – | – | – | – | – | – | – | – | – | –
C=C1[C@@H](C)[C@H]2[C@H](Cc3ccccc3)NC(=O)[C@]23[C@H](OC(C)=O)/C=C/[C@@](C)(O)C(=O)[C@@H](C)C/C=C/[C@H]3[C@@H]1O [Cyt D, cytochalasin D] | – | – | – | – | – | no difference in fluorescence uptake | inhibited; also recorded: reduction in uptake | not markedly different | completely destroys actin organisation | 4.55 | 4.5 | no effect | inhibited | inhibited | increased uptake | dramatically enhanced | less of a noticeable reduction in uptake; also recorded: inhibition | dramatically increased
